Assay results reported in patent publication US12365696B2, “Small-molecule focal adhesion kinase (FAK) inhibitors” (DANA-FARBER CANCER INSTITUTE, INC., priority 2019, dated 2025).

Legend:
Test in all cases: KINOMEscan
Assay type in all cases: binding
[1] = target: ABL1(F317I)-nonphosphorylated (Homo sapiens (Human), UniProt P00519, F317I); conditions: 10000 nM, read-out: Percent Control
[2] = target: ACVR2A (Homo sapiens (Human), UniProt P27037); conditions: 10000 nM, read-out: Percent Control
[3] = target: ALK(C1156Y) (Homo sapiens (Human), UniProt Q9UM73, C1156Y); conditions: 10000 nM, read-out: Percent Control
[4] = target: ARK5 (Homo sapiens (Human), UniProt O60285); conditions: ARK5, 10000 nM; read-out: Percent Control
Sequence of ARK5 (O60285 whole entry): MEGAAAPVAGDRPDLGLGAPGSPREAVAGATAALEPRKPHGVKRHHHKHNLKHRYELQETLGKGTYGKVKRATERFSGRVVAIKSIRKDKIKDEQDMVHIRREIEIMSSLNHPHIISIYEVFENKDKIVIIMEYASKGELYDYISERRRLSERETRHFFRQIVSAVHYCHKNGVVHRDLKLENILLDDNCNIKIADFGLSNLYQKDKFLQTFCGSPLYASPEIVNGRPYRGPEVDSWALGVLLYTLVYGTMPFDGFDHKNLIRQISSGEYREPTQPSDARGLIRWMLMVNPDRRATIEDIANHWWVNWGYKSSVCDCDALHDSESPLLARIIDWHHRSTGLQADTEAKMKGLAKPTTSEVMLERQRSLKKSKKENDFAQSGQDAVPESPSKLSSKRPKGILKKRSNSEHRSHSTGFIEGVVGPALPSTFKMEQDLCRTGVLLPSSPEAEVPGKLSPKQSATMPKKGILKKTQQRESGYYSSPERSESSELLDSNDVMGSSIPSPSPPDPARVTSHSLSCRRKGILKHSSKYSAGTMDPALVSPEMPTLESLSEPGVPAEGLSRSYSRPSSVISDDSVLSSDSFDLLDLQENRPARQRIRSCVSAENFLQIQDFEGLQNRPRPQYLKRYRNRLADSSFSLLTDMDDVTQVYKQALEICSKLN

[5] = target: ASK2 (Homo sapiens (Human), UniProt O95382); conditions: ASK2, 10000 nM; read-out: Percent Control
[6] = target: AURKC (Homo sapiens (Human), UniProt Q9UQB9); conditions: 10000 nM, read-out: Percent Control
Sequence of AURKC (Q9UQB9 whole entry): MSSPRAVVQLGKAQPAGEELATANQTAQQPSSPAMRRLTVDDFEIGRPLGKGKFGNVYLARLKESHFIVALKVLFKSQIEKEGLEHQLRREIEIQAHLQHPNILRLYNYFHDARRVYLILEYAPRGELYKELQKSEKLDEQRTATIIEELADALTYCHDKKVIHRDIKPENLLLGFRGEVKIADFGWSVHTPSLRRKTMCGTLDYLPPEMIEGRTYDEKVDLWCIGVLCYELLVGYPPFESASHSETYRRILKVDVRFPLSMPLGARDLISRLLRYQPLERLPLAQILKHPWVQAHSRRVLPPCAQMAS

[7] = target: CDK5 (Homo sapiens (Human), UniProt Q00535); conditions: CDK5, 10000 nM; read-out: Percent Control
[8] = target: CDKL1 (Homo sapiens (Human), UniProt Q00532); conditions: CDKL1, 10000 nM; read-out: Percent Control
Sequence of CDKL1 (Q00532 whole entry): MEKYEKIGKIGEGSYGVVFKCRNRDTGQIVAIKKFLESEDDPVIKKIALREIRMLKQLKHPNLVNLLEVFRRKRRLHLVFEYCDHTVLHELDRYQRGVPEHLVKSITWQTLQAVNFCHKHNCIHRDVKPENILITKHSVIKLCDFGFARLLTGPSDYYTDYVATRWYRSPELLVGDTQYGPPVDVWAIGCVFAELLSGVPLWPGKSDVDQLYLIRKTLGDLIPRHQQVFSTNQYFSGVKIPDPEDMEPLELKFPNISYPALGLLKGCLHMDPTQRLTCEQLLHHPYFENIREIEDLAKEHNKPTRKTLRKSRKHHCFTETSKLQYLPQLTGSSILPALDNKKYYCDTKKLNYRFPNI

[9] = target: DDR1 (Homo sapiens (Human), UniProt Q08345); conditions: DDR1, 10000 nM; read-out: Percent Control
[10] = target: DRAK2 (Homo sapiens (Human), UniProt O94768); conditions: DRAK2, 10000 nM; read-out: Percent Control
[11] = target: EGFR(L747-E749del, A750P) (Homo sapiens (Human), UniProt P00533, A750P/DEL747-749); conditions: 10000 nM, read-out: Percent Control
[12] = target: EPHA4 (Homo sapiens (Human), UniProt P54764); conditions: EPHA4, 10000 nM; read-out: Percent Control
[13] = target: FLT3(D835Y) (Homo sapiens (Human), UniProt P36888, D835Y); conditions: 10000 nM, read-out: Percent Control
[14] = target: FLT3(N841I) (Homo sapiens (Human), UniProt P36888, N841I); conditions: 10000 nM, read-out: Percent Control
[15] = target: IRAK3 (Homo sapiens (Human), UniProt Q9Y616); conditions: IRAK3, 10000 nM; read-out: Percent Control
[16] = target: LIMK1 (Homo sapiens (Human), UniProt P53667); conditions: LIMK1, 10000 nM; read-out: Percent Control
[17] = target: LTK (Homo sapiens (Human), UniProt P29376); conditions: 10000 nM, read-out: Percent Control
[18] = target: MEK1 (Homo sapiens (Human), UniProt Q02750); conditions: MEK1, 10000 nM; read-out: Percent Control
Sequence of MEK1 (Q02750 whole entry): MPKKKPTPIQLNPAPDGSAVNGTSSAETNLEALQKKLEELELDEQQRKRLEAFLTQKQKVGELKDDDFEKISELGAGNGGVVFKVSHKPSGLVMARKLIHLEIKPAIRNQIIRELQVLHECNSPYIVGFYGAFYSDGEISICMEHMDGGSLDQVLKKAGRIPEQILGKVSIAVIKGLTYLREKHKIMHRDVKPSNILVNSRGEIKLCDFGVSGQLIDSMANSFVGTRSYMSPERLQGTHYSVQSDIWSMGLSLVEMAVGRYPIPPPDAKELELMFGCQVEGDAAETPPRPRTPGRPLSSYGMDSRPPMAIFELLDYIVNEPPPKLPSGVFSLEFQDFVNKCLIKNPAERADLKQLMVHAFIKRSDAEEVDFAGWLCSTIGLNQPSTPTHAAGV

[19] = target: MEK3 (Homo sapiens (Human), UniProt P46734); conditions: MEK3, 10000 nM; read-out: Percent Control
Sequence of MEK3 (P46734 whole entry): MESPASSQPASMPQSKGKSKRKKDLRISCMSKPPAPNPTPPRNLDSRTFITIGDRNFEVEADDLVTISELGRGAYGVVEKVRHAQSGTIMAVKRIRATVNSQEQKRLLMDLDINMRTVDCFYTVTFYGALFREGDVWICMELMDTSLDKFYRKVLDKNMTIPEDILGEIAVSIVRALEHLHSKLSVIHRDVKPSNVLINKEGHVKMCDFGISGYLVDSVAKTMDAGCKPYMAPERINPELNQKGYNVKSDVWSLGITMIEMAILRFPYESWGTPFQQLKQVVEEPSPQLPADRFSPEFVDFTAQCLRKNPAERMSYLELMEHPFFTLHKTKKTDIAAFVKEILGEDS

[20] = target: MST2 (Homo sapiens (Human), UniProt Q13188); conditions: MST2, 10000 nM; read-out: Percent Control
[21] = target: NEK1 (Homo sapiens (Human), UniProt Q96PY6); conditions: NEK1, 10000 nM; read-out: Percent Control
[22] = target: NEK5 (Homo sapiens (Human), UniProt Q6P3R8); conditions: NEK5, 10000 nM; read-out: Percent Control
[23] = target: NLK (Homo sapiens (Human), UniProt Q9UBE8); conditions: 10000 nM, read-out: Percent Control
[24] = target: p38-gamma (Homo sapiens (Human), UniProt P53778); conditions: 10000 nM, read-out: Percent Control
Sequence of p38-gamma (P53778 whole entry): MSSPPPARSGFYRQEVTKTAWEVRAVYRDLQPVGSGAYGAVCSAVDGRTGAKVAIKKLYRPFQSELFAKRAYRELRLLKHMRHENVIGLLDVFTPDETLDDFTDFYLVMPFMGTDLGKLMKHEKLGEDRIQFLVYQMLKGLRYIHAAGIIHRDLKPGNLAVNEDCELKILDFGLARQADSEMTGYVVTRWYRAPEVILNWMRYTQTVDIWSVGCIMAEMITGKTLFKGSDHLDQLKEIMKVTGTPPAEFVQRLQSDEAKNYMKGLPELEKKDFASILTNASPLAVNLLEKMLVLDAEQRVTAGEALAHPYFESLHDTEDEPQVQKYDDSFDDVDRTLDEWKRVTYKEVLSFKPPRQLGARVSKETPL

[25] = target: PIK3CA(E545K) (Homo sapiens (Human), UniProt P42336, E545K); conditions: 10000 nM, read-out: Percent Control
Sequence of PIK3CA(E545K) (P42336 whole entry E545K): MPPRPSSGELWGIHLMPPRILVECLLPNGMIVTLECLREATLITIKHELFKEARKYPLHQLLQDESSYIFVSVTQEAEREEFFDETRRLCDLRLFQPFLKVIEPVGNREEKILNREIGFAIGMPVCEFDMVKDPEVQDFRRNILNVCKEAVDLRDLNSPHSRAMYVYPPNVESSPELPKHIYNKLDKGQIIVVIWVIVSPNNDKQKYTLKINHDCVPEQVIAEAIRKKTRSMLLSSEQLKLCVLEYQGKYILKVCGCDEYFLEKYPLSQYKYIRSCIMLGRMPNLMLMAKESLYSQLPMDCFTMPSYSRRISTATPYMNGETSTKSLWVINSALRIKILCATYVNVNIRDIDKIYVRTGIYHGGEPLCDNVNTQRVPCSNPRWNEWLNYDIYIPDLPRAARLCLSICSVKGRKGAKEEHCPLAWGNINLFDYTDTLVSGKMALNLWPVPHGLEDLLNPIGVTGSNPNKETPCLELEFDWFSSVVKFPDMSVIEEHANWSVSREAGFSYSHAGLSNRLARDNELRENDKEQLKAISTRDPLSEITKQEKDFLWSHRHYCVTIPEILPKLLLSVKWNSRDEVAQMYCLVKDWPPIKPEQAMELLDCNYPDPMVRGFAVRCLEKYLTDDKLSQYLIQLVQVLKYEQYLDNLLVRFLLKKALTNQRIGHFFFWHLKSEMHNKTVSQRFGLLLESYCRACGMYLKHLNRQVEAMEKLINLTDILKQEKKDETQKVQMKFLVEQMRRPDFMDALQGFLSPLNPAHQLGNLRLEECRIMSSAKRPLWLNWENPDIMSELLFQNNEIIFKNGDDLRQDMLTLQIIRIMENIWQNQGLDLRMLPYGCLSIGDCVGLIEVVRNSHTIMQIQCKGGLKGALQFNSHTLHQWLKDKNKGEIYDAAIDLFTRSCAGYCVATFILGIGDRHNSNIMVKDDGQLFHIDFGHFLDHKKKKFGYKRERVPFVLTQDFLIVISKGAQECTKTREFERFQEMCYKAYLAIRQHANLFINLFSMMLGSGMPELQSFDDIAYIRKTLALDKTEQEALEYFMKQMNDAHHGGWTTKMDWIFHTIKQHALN

[26] = target: PLK1 (Homo sapiens (Human), UniProt P53350); conditions: PLK1, 10000 nM; read-out: Percent Control
[27] = target: RPS6KA4(Kin.Dom.2-C-terminal) (Homo sapiens (Human), UniProt O75676); conditions: 10000 nM, read-out: Percent Control
[28] = target: RSK2(Kin.Dom.1-N-terminal) (Homo sapiens (Human), UniProt P51812); conditions: 10000 nM, read-out: Percent Control
Sequence of RSK2(Kin.Dom.1-N-terminal) (P51812 68-327): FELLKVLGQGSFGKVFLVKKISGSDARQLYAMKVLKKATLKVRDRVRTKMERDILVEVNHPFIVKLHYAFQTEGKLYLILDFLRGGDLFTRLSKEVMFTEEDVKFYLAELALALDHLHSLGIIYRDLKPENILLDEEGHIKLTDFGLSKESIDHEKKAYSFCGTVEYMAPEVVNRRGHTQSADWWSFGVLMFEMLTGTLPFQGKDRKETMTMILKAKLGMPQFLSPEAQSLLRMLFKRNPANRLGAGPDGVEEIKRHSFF

[29] = target: SYK (Homo sapiens (Human), UniProt P43405); conditions: 10000 nM, read-out: Percent Control
[30] = target: TAK1 (Homo sapiens (Human), UniProt O43318); conditions: TAK1, 10000 nM; read-out: Percent Control
Sequence of TAK1 (O43318 whole entry): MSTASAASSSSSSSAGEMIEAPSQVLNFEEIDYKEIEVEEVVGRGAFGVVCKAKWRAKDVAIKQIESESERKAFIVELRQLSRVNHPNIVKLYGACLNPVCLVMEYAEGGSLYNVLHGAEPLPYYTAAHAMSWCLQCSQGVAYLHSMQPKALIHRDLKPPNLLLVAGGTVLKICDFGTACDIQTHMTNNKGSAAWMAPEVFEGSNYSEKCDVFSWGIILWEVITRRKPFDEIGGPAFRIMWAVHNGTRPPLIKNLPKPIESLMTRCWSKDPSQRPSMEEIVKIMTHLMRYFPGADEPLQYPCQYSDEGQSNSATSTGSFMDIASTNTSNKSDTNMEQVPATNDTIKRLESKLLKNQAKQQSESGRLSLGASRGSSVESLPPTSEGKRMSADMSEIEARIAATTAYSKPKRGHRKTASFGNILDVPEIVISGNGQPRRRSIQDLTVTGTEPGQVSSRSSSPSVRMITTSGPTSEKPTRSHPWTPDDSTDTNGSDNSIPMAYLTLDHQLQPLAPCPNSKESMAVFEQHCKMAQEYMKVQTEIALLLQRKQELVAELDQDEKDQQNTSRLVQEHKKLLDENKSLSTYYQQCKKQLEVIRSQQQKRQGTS

[31] = target: TBK1 (Homo sapiens (Human), UniProt Q9UHD2); conditions: TBK1, 10000 nM; read-out: Percent Control
[32] = target: TLK1 (Homo sapiens (Human), UniProt Q9UKI8); conditions: TLK1, 10000 nM; read-out: Percent Control
[33] = target: VPS34 (Homo sapiens (Human), UniProt Q8NEB9); conditions: VPS34, 10000 nM; read-out: Percent Control
[34] = target: YANK3 (Homo sapiens (Human), UniProt Q86UX6); conditions: YANK3, 10000 nM; read-out: Percent Control
Sequence of YANK3 (Q86UX6 whole entry): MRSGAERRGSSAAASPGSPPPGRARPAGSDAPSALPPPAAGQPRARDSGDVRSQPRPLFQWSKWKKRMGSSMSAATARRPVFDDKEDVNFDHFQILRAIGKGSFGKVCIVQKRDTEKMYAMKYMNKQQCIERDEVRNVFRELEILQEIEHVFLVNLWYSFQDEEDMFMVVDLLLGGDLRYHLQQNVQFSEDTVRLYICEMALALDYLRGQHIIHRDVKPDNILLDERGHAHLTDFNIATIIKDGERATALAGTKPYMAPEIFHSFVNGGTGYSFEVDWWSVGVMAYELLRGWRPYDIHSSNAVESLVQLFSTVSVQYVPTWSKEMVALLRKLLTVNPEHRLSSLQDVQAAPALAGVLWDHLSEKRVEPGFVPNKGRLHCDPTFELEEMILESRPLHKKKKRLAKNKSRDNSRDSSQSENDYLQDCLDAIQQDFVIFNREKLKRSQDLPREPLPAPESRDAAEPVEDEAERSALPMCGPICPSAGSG

SMILES	remaining binding at 10 µM [1] [%]	remaining binding at 10 µM [2] [%]	remaining binding at 10 µM [3] [%]	remaining binding at 10 µM [4] [%]	remaining binding at 10 µM [5] [%]	remaining binding at 10 µM [6] [%]	remaining binding at 10 µM [7] [%]	remaining binding at 10 µM [8] [%]	remaining binding at 10 µM [9] [%]	remaining binding at 10 µM [10] [%]	remaining binding at 10 µM [11] [%]	remaining binding at 10 µM [12] [%]	remaining binding at 10 µM [13] [%]	remaining binding at 10 µM [14] [%]	remaining binding at 10 µM [15] [%]	remaining binding at 10 µM [16] [%]	remaining binding at 10 µM [17] [%]	remaining binding at 10 µM [18] [%]	remaining binding at 10 µM [19] [%]	remaining binding at 10 µM [20] [%]	other results
COc1cc(N2CCC(N3CCN(C)CC3)CC2)ccc1Nc1ncc2c(n1)N(C)c1sc(C)nc1C(=O)N2 [Compound 3, 6-((2-methoxy-4-(4-(4-methylpiperazin-1-yl)piperidin-1-yl)phenyl)amino)-2,4-dimethyl-4,9-dihydro-10H-pyrimido[5,4-b]thiazolo[5,4-e][1,4]diazepin-10-one]	3.8	76	100	86	100	95	71	72	89	100	95	87	76	98	80	96	81	100	92	100	remaining binding at 10 µM [21]: 78%; remaining binding at 10 µM [22]: 97%; remaining binding at 10 µM [23]: 59%; remaining binding at 10 µM [24]: 67%; remaining binding at 10 µM [25]: 90%; remaining binding at 10 µM [26]: 100%; remaining binding at 10 µM [27]: 100%; remaining binding at 10 µM [28]: 99%; remaining binding at 10 µM [29]: 77%; remaining binding at 10 µM [30]: 95%; remaining binding at 10 µM [31]: 71%; remaining binding at 10 µM [32]: 90%; remaining binding at 10 µM [33]: 100%; remaining binding at 10 µM [34]: 68%
COc1cc(N2CCC(N3CCN(C)CC3)CC2)ccc1Nc1ncc2c(n1)N(C)c1sc(C)nc1C(=O)N2C [Compound 5, 6-((2-methoxy-4-(4-(4-methylpiperazin-1-yl)piperidin-1-yl)phenyl)amino)-2,4,9-trimethyl-4,9-dihydro-10H-pyrimido[5,4-b]thiazolo[5,4-e][1,4]diazepin-10-one]	48	97	89	94	100	100	98	80	100	100	97	68	91	83	99	95	97	95	100	100	remaining binding at 10 µM [21]: 97%; remaining binding at 10 µM [22]: 100%; remaining binding at 10 µM [23]: 93%; remaining binding at 10 µM [24]: 95%; remaining binding at 10 µM [25]: 100%; remaining binding at 10 µM [26]: 0.7%; remaining binding at 10 µM [27]: 30%; remaining binding at 10 µM [28]: 97%; remaining binding at 10 µM [29]: 89%; remaining binding at 10 µM [30]: 100%; remaining binding at 10 µM [31]: 88%; remaining binding at 10 µM [32]: 81%; remaining binding at 10 µM [33]: 89%; remaining binding at 10 µM [34]: 98%
